{"source": "ChEMBL document CHEMBL6096702", "about": "“Discovery of a Novel p38α-MK2 Complex Inhibitor as a Potential Choice for Autoimmune Diseases” (J Med Chem, 2025)", "key": {"Cytochrome P450 2C9": {"biological_target": "Cytochrome P450 2C9 (Homo sapiens, UniProt P11712)", "sequence (P11712 whole entry)": "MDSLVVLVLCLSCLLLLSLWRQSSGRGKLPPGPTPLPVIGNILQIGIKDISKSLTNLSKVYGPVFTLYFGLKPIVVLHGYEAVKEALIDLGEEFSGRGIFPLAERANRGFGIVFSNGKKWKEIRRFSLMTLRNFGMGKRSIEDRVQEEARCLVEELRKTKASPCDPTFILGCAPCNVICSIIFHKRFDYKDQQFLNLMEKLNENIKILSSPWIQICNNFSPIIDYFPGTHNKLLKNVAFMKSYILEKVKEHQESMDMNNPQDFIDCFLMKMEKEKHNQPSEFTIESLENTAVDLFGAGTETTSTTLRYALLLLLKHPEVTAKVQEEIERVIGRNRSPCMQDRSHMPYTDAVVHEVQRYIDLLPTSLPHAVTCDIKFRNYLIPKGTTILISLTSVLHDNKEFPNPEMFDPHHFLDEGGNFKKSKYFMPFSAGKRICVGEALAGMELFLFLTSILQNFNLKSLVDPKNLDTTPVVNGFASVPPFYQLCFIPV", "experiment": "Inhibition of CYP2C9 in human liver microsomes using tolbutamide as substrate in presence of NADP by LC-MS/MS analysis", "type": "ADME, Microsome"}, "[1]": {"experiment": "(§1) Selectivity ratio of IC50 for inhibition of P38alpha/GST-tagged ATF2 (unknown origin) to IC50 for inhibition of N-terminal GST-tagged wildtype human P38alpha (4 to 152 residues) extracted from Escherichia coli/GST-tagged MK2 (unknown origin)"}, "[2]": {"experiment": "Cmax in male Sprague-Dawley rat at 2 mg/kg, po measured after 24 hrs by LC-MS/MS analysis", "type": "ADME, organism-based", "conditions": "in vivo"}, "[3]": {"experiment": "Volume of distribution at steady state in male Sprague-Dawley rat at 1 mg/kg, iv measured after 24 hrs by LC-MS/MS analysis", "type": "ADME, organism-based", "conditions": "in vivo, read-out: Vdss"}, "Rattus norvegicus [4]": {"system": "Rattus norvegicus", "experiment": "Antiarthritic activity in Mycobacterium tuberculosis H37R-induced female Lewis rat model of arthritis assessed as inhibition of IL-6 production at 0.3 to 1 mg/kg, po administered twice daily for 15 days starting from day 13 after adjuvant administration", "type": "functional, organism-based", "conditions": "dose 0.3-1 mg/kg, time 15.0 day"}, "[5]": {"experiment": "AUClast in male Sprague-Dawley rat at 2 mg/kg, po measured after 24 hrs by LC-MS/MS analysis", "type": "ADME, organism-based", "conditions": "in vivo"}, "[6]": {"experiment": "Inhibition of HSP27 phosphorylation in human THP-1 cells at 0.1 to 1000 nM preincubated with compounds followed by LPS addition for 30 mins", "type": "cell-based"}, "Cytochrome P450 2D6": {"biological_target": "Cytochrome P450 2D6 (Homo sapiens, UniProt P10635)", "sequence (P10635 whole entry)": "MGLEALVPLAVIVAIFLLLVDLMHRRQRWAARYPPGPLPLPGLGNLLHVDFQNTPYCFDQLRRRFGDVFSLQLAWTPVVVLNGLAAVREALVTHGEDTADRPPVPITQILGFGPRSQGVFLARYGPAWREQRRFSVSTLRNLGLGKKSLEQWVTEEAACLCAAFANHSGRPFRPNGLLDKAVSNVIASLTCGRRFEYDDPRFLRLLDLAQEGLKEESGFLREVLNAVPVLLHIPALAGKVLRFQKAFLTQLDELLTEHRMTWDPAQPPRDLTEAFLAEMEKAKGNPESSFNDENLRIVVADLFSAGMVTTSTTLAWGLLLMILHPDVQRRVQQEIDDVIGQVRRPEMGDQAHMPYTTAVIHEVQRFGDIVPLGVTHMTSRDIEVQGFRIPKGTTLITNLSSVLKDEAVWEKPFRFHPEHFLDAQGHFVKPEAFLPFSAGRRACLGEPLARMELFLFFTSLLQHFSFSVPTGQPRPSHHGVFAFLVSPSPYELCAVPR", "experiment": "Inhibition of CYP2D6 in human liver microsomes using dextromethorphan as substrate in presence of NADP by LC-MS/MS analysis", "type": "ADME, Microsome"}, "Cytochrome P450 3A4": {"biological_target": "Cytochrome P450 3A4 (Homo sapiens, UniProt P08684)", "sequence (P08684 whole entry)": "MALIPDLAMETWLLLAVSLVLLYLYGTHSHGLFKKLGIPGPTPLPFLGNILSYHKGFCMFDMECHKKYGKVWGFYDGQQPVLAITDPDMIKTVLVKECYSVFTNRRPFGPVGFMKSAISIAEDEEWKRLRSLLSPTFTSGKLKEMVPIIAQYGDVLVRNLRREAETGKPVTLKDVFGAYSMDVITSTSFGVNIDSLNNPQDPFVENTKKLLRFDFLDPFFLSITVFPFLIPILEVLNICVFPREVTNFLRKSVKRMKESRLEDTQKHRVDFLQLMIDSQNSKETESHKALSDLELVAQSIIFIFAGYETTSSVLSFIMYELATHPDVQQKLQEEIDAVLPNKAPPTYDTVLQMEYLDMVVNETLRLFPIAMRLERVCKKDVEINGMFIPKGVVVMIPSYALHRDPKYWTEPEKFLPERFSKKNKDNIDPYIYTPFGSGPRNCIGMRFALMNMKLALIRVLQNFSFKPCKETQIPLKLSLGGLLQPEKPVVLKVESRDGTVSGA", "experiment": "Inhibition of CYP3A4 in human liver microsomes using midazolam as substrate in presence of NADP by LC-MS/MS analysis", "type": "ADME, Microsome"}, "[7]": {"experiment": "Inhibition of N-terminal GST-tagged wildtype human P38alpha (4 to 152 residues) extracted from Escherichia coli/GST-tagged MK2 (unknown origin) assessed as reduction in HSP27 phosphorylation incubated for 2 hrs in presence of ATP and HSP27-FITC peptide by fluorescence polarization based IMAP assay"}, "[8]": {"experiment": "Half-life in female Lewis rat at 3 mg/kg, po measured after 24 hrs by LC-MS/MS analysis", "type": "ADME, organism-based", "conditions": "in vivo"}, "[9]": {"experiment": "AUClast in male Beagle dog at 2 mg/kg, po measured after 24 hrs by LC-MS/MS analysis", "type": "ADME, organism-based, Canis lupus familiaris", "conditions": "in vivo"}, "[10]": {"experiment": "Half-life in male Beagle dog at 1 mg/kg, iv measured after 24 hrs by LC-MS/MS analysis", "type": "ADME, organism-based, Canis lupus familiaris", "conditions": "in vivo"}, "[11]": {"experiment": "Inhibition of P38alpha/GST-tagged ATF2 (unknown origin) assessed as reduction in ATF2 phosphorylation incubated for 30 mins in presence of ATP by TR-FRET assay", "set-up": "species or system Homo sapiens"}, "PBMC [12]": {"system": "PBMC", "experiment": "Inhibition of LPS-induced TNF-alpha production in human PBMC cells at 0.01 to 10000 nM preincubated with compound for 1 hrs followed by LPS addition and measured after 4 hrs", "type": "functional, cell-based", "conditions": "dose 0.01-10000 nM, time 5.0 hrs"}, "Rattus norvegicus [13]": {"system": "Rattus norvegicus", "experiment": "Antiarthritic activity in Mycobacterium tuberculosis H37R-induced female Lewis rat model of arthritis assessed as reduction in paw inflammation at 0.3 to 1 mg/kg, po administered twice daily for 15 days starting from day 13 after adjuvant administration by micro-CT analysis", "type": "functional, organism-based", "conditions": "dose 0.3-1 mg/kg, time 15.0 day"}, "[14]": {"experiment": "AUC (0 to 24 hrs) in female Lewis rat at 3 mg/kg, po measured after 24 hrs by LC-MS/MS analysis", "type": "ADME, organism-based", "conditions": "in vivo"}, "[15]": {"biological_target": "MAP kinase-activated protein kinase 2 (Homo sapiens) (UniProt P49137)", "sequence (P49137 whole entry, looked up)": "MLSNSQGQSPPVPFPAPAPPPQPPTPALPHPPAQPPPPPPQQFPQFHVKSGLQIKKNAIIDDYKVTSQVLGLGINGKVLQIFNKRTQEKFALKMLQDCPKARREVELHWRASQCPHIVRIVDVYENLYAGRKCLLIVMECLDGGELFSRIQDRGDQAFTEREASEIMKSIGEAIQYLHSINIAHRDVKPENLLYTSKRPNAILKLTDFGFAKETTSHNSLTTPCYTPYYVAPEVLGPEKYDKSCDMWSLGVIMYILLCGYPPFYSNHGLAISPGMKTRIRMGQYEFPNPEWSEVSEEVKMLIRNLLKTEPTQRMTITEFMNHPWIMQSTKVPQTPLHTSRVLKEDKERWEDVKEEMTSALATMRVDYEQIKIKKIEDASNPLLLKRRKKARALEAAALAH", "experiment": "Inhibition of LPS-induced MK2 phosphorylation in differentiated human THP-1 macrophage cells at 10 to 10000 nM preincubated with compound for 60 mins followed by LPS addition and measured after 30 mins by Western blot analysis", "type": "cell-based", "conditions": "dose 10-10000 nM, time 90.0 min"}, "PBMC [16]": {"system": "PBMC", "experiment": "Inhibition of LPS-induced IL-8 production in human PBMC cells at 0.01 to 10000 nM preincubated with compound for 1 hrs followed by LPS addition and measured after 4 hrs", "type": "functional, cell-based", "conditions": "dose 0.01-10000 nM, time 5.0 hrs"}, "[17]": {"experiment": "Inhibition of N-terminal GST-tagged wildtype human P38alpha (4 to 152 residues) extracted from Escherichia coli/GST-tagged PRAK (unknown origin) assessed as reduction in HSP27 phosphorylation incubated for 2 hrs in presence of ATP and HSP27-FITC peptide by fluorescence polarization based IMAP assay"}, "[18]": {"experiment": "as §1, with “N-terminal GST-tagged wildtype human P38alpha (4 to 152 residues) extracted from Escherichia coli/GST-tagged PRAK” for “P38alpha/GST-tagged ATF2”"}, "[19]": {"experiment": "Cmax in female Lewis rat at 3 mg/kg, po measured after 24 hrs by LC-MS/MS analysis", "type": "ADME, organism-based", "conditions": "in vivo"}, "[20]": {"experiment": "AUC (0 to 24 hrs) in female Lewis rat at 1 mg/kg, po measured after 24 hrs by LC-MS/MS analysis", "type": "ADME, organism-based", "conditions": "in vivo"}, "PBMC [21]": {"system": "PBMC", "experiment": "Inhibition of LPS-induced IL-6 production in human PBMC cells at 0.01 to 10000 nM preincubated with compound for 1 hrs followed by LPS addition and measured after 4 hrs", "type": "functional, cell-based", "conditions": "dose 0.01-10000 nM, time 5.0 hrs"}, "[22]": {"experiment": "MRT in male Beagle dog at 1 mg/kg, iv measured after 24 hrs by LC-MS/MS analysis", "type": "ADME, organism-based, Canis lupus familiaris", "conditions": "in vivo"}, "Rattus norvegicus [23]": {"system": "Rattus norvegicus", "experiment": "Antiarthritic activity in Mycobacterium tuberculosis H37R-induced female Lewis rat model of arthritis assessed as reduction in joint swelling by measuring paw volume score at 1 mg/kg, po administered twice daily for 15 days starting from day 13 after adjuvant administration by water displacement method", "type": "functional, organism-based", "conditions": "time 15.0 day"}, "[24]": {"experiment": "Clearance in male Sprague-Dawley rat at 1 mg/kg, iv measured after 24 hrs by LC-MS/MS analysis", "type": "ADME, organism-based", "conditions": "in vivo"}, "[25]": {"experiment": "Cmax in male Beagle dog at 2 mg/kg, po measured after 24 hrs by LC-MS/MS analysis", "type": "ADME, organism-based, Canis lupus familiaris", "conditions": "in vivo"}, "[26]": {"experiment": "Solubility of compound in PBS at pH 7.4 measured after 4 to 24 hrs by LC-MS analysis", "type": "physicochemical", "conditions": "time 4-24 hrs"}, "[27]": {"experiment": "AUClast in male Sprague-Dawley rat at 1 mg/kg, iv measured after 24 hrs by LC-MS/MS analysis", "type": "ADME, organism-based", "conditions": "in vivo"}, "[28]": {"experiment": "Oral bioavailability in male Sprague-Dawley rat at 2 mg/kg measured after 24 hrs by LC-MS/MS analysis", "type": "ADME, organism-based", "conditions": "in vivo"}, "Rattus norvegicus [29]": {"system": "Rattus norvegicus", "experiment": "Antiarthritic activity in Mycobacterium tuberculosis H37R-induced female Lewis rat model of arthritis assessed as reduction in clinical score at 1 mg/kg, po administered twice daily for 15 days starting from day 13 after adjuvant administration", "type": "functional, organism-based", "conditions": "time 15.0 day"}}, "note": "Calls of active or inactive are those of the source. The calls are words filed in the database; no cut-off is given here."}
{"smiles": "Cc1cnc(-c2ccnc(C(C)(C)O)n2)c(F)c1-n1c(C)cc(O[C@@H](C)c2ncc(F)cc2F)c(C)c1=O", "values": [{"measurement": "IC50", "setting": "Cytochrome P450 2C9", "result": "> 40", "unit": "µM"}, {"measurement": "Ratio IC50", "setting": "[1]", "result": 263}, {"measurement": "Cmax", "setting": "[2]", "result": 1140, "unit": "ng/mL"}, {"measurement": "Vd", "setting": "[3]", "result": 1.2, "unit": "L/kg"}, {"measurement": "Activity", "setting": "Rattus norvegicus [4]", "result": "Active"}, {"measurement": "AUC(0-t) at 24 h", "setting": "[5]", "result": 4340, "unit": "ng·h/mL"}, {"measurement": "IC50", "setting": "[6]", "result": 0.001, "unit": "µM"}, {"measurement": "IC50", "setting": "Cytochrome P450 2D6", "result": "> 40", "unit": "µM"}, {"measurement": "IC50", "setting": "Cytochrome P450 3A4", "result": "> 40", "unit": "µM"}, {"measurement": "IC50", "setting": "[7]", "result": 0.005, "unit": "µM"}, {"measurement": "half-life", "setting": "[8]", "result": 3.5, "unit": "h"}, {"measurement": "AUC(0-t) at 24 h", "setting": "[9]", "result": 5080, "unit": "ng·h/mL"}, {"measurement": "half-life", "setting": "[10]", "result": 2.9, "unit": "h"}, {"measurement": "IC50", "setting": "[11]", "result": 1, "unit": "µM"}, {"measurement": "inhibition", "setting": "PBMC [12]", "result": "Active"}, {"measurement": "Activity", "setting": "Rattus norvegicus [13]", "result": "Active"}, {"measurement": "AUC(0-t) at 24 h", "setting": "[14]", "result": 6480, "unit": "ng·h/mL"}, {"measurement": "inhibition", "setting": "[15]", "result": "Active"}, {"measurement": "inhibition", "setting": "PBMC [16]", "result": "Active"}, {"measurement": "IC50", "setting": "[17]", "result": 5.85, "unit": "µM"}, {"measurement": "Ratio IC50", "setting": "[18]", "result": 1170}, {"measurement": "Cmax", "setting": "[19]", "result": 916, "unit": "ng/mL"}, {"measurement": "AUC(0-t) at 24 h", "setting": "[20]", "result": 2390, "unit": "ng·h/mL"}, {"measurement": "inhibition", "setting": "PBMC [21]", "result": "Active"}, {"measurement": "MRT", "setting": "[22]", "result": 2.9, "unit": "h"}, {"measurement": "Activity", "setting": "Rattus norvegicus [23]", "result": "Active; Significantly Superior Activity Observed Compared To 3 Mg/Kg Of Compound 1"}, {"measurement": "clearance", "setting": "[24]", "result": 9.6, "unit": "mL/min/kg"}, {"measurement": "Cmax", "setting": "[25]", "result": 1120, "unit": "ng/mL"}, {"measurement": "solubility", "setting": "[26]", "result": 88.3, "unit": "µg/mL"}, {"measurement": "AUC(0-t) at 24 h", "setting": "[27]", "result": 1800, "unit": "ng·h/mL"}, {"measurement": "bioavailability", "setting": "[28]", "result": 121, "unit": "%"}, {"measurement": "Activity", "setting": "Rattus norvegicus [29]", "result": "Active; Comparable To 3 Mg/Kg Of Compound 1"}]}
